Structures are written as SMILES.

This test has as its target T1, human chemokine receptor 2 isoform B (CCR2) (Homo sapiens, UniProt P41597).
T1 sequence (P41597 1-360 isoform P41597-2): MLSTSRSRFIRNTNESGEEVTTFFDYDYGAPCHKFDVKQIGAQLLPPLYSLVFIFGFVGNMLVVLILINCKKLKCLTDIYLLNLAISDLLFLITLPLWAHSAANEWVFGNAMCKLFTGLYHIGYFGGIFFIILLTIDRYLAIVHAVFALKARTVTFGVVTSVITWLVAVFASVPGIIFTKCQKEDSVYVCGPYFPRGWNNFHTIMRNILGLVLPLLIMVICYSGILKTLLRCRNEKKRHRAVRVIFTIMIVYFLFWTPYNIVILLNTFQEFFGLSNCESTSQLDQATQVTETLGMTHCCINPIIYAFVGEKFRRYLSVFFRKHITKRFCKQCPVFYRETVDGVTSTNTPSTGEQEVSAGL
The test can be described thus: Calcium mobilization assay (FLIPR, MCP-1 stimulated CHOK1-CCR2B-A5 cells). In kind it is cell-based. The following applies: Ca mobilisation assay, CCR2 antagonist activity, inhibition of MCP-1 induced calcium increase. An outline of the steps:
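Fluo-4-loaded CHOK1 cells stably expressing human CCR2B were preincubated with compound 20-30 min at 30 °C in DMEM/Hepes/probenecid/0.1% BSA buffer with 0.5% DMSO, then challenged with […] MCP-1. FLIPR calcium signal (max minus basal) gave IC50; agonism also monitored.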
Turning to `COCC(CCN1CCC2(CC2)[C@H](O)C1)N1CCN(C(=O)Oc2ccc(Cl)c(Cl)c2)CCC1=O` (stereo partly drawn) [Example 7, (R,S)-4-[3-((S)-4-Hydroxy-6-aza-spiro[2.5]oct-6-yl)-1-methoxymethyl-propyl]-5-oxo-[1,4]diazepane-1-carboxylic acid 3,4-dichloro-phenyl ester], the IC50 – broadly, the concentration at which inhibition is half-maximal – worked out at 370 nM.
In the case of `COC(=O)C(CCN1CCC2(CC2)[C@H](O)C1)N1CCN(C(=O)Nc2cccc(Cl)c2)CCC1=O` (stereo partly drawn) [Example 1, (R,S)-2-[4-(3-Chloro-phenylcarbamoyl)-7-oxo-[1,4]diazepan-1-yl]-4-((S)-4-hydroxy-6-aza-spiro[2.5]oct-6-yl)-butyric acid methyl ester] it was 470 nM; in that of `COC[C@H](CCN1CCC2(CC2)[C@H](O)C1)N1CCN(C(=O)Nc2ccc(F)c(Cl)c2)[C@@H](C)C1=O` [Example 79, (S)-4-[(S)-3-((S)-4-Hydroxy-6-aza-spiro[2.5]oct-6-yl)-1-methoxymethyl-propyl]-2-methyl-3-oxo-piperazine-1-carboxylic acid (3-chloro-4-fluoro-phenyl)-amide], 3 nM; in that of `O=C1CCN(C(=O)Nc2ccc(Cl)c(Cl)c2)CCN1CCCN1CCC2(CC2)[C@H](O)C1` [Example 54, 4-[3-((S)-4-Hydroxy-6-aza-spiro[2.5]oct-6-yl)-propyl]-5-oxo-[1,4]diazepane-1-carboxylic acid (3,4-dichloro-phenyl)-amide], 6 nM.
Regarding `C[C@H]1C(=O)N(CCCN2CCC3(CC3)[C@H](O)C2)CCN1C(=O)Nc1ccc(Cl)cc1` [Example 72, (S)-4-[3-((S)-4-Hydroxy-6-aza-spiro[2.5]oct-6-yl)-propyl]-2-methyl-3-oxo-piperazine-1-carboxylic acid (4-chloro-phenyl)-amide], the IC50 was 8 nM.
On to `C[C@H]1C(=O)N(CCCN2CCC3(CC3)[C@H](O)C2)CCN1C(=O)NCc1ccc(Cl)cc1` [Example 77, (S)-4-[3-((S)-4-Hydroxy-6-aza-spiro[2.5]oct-6-yl)-propyl]-2-methyl-3-oxo-piperazine-1-carboxylic acid 4-chloro-benzylamide], for which the IC50 was determined as 110 nM.
In the case of `COC(=O)OC[C@H](CCN1CCC2(CC2)[C@H](O)C1)N1CCN(C(=O)Nc2ccc(Cl)c(Cl)c2)[C@@H](C)C1=O` [Example 112, Carbonic acid (S)-2-[(S)-4-(3,4-dichloro-phenylcarbamoyl)-3-methyl-2-oxo-piperazin-1-yl]-4-((S)-4-hydroxy-6-aza-spiro[2.5]oct-6-yl)-butyl ester methyl ester] it was 2 nM; in that of `C[C@H]1C(=O)N(CCCCN2CCC3(CC3)[C@H](O)C2)CCN1C(=O)Nc1cccc(-c2ccccc2)c1` [Example 93, (S)-4-[4-((S)-4-Hydroxy-6-aza-spiro[2.5]oct-6-yl)-butyl]-2-methyl-3-oxo-piperazine-1-carboxylic acid biphenyl-3-ylamide], 2 nM; in that of `O=C(NCc1ccc(Cl)c(Cl)c1)N1CCC(=O)N([C@H](CO)CCN2CCC3(CC3)[C@H](O)C2)CC1` [Example 51, 4-[(S)-3-((S)-4-hydroxy-6-aza-spiro[2.5]oct-6-yl)-1-hydroxymethyl-propyl]-5-oxo-[1,4]diazepane-1-carboxylic acid 3,4-dichloro-benzylamide], 250 nM.
Then `O=C(Nc1ccc(Cl)c(Cl)c1)N1CCC(=O)N([C@H](CO)CCN2CCC3(CC3)[C@H](O)C2)CC1` [Example 53, 4-[(S)-3-((S)-4-Hydroxy-6-aza-spiro[2.5]oct-6-yl)-1-hydroxymethyl-propyl]-5-oxo-[1,4]diazepane-1-carboxylic acid (3,4-dichloro-phenyl)-amide], with 1 nM.
On to `COC[C@@H](CCN1CCC2(CC2)[C@H](O)C1)N1CCN(C(=O)Nc2ccc(Cl)c(Cl)c2)CCC1=O` [Example 57, 4-[(R)-3-((S)-4-hydroxy-6-aza-spiro[2.5]oct-6-yl)-1-methoxymethyl-propyl]-5-oxo-[1,4]diazepane-1-carboxylic acid (3,4-dichloro-phenyl)-amide], for which the IC50 was 240 nM.
As to `C[C@@H]1CN(CCCN2CCCCC2)C(=O)CCN1C(=O)Nc1ccc(Cl)c(Cl)c1` [Example 25, (R)-2-Methyl-5-oxo-4-(3-piperidin-1-yl-propyl)-[1,4]diazepane-1-carboxylic acid (3,4-dichloro-phenyl)-amide], the IC50 was 380 nM.
Then `O=C(NCc1ccc(Cl)c(Cl)c1)OC[C@H](CCN1CCC2(CC2)[C@H](O)C1)N1CCN(C(=O)NCc2ccc(Cl)c(Cl)c2)CCC1=O` [Example 52, (3,4-dichloro-benzyl)-carbamic acid (S)-2-[4-(3,4-dichloro-benzylcarbamoyl)-7-oxo-[1,4]diazepan-1-yl]-4-((S)-4-hydroxy-6-aza-spiro[2.5]oct-6-yl)-butyl ester], with 960 nM; and `O=C(Nc1cccc(Cl)c1)N1CCC(=O)N([C@H](CO)CCN2CCC3(CC3)[C@H](O)C2)CC1` [Example 4, 4-[(S)-3-((S)-4-Hydroxy-6-aza-spiro[2.5]oct-6-yl)-1-hydroxymethyl-propyl]-5-oxo-[1,4]diazepane-1-carboxylic acid (3-chloro-phenyl)-amide], with 10 nM; and `C[C@H]1C(=O)N(CCCN2CCCCC2)CCN1C(=O)Nc1ccc2ccccc2c1` [Example 40, (S)-2-Methyl-3-oxo-4-(3-piperidin-1-yl-propyl)-piperazine-1-carboxylic acid naphthalen-2-ylamide], with 360 nM.
As to `C[C@H]1C(=O)N([C@@H](CCN2CCC3(CC3)[C@H](O)C2)C(=O)N(C)C)CCN1C(=O)Nc1cccc(Cl)c1` [Example 125, (S)-4-[(S)-1-Dimethylcarbamoyl-3-((S)-4-hydroxy-6-aza-spiro[2.5]oct-6-yl)-propyl]-2-methyl-3-oxo-piperazine-1-carboxylic acid (3-chloro-phenyl)-amide], the IC50 stood at 16 nM.
With `C[C@H]1C(=O)N(CCCN2CCC3(CC3)[C@H](O)C2)CCN1C(=O)Nc1ccc2ccccc2c1` [Example 75, (S)-4-[3-((S)-4-Hydroxy-6-aza-spiro[2.5]oct-6-yl)-propyl]-2-methyl-3-oxo-piperazine-1-carboxylic acid naphthalen-2-ylamide], the IC50 came to 3 nM.
As for `CCNC(=O)OC[C@H](CCN1CCC2(CC2)[C@H](O)C1)N1CCN(C(=O)Nc2cccc(Cl)c2)[C@@H](C)C1=O` [Example 111, Ethyl-carbamic acid (S)-2-[(S)-4-(3-chloro-phenylcarbamoyl)-3-methyl-2-oxo-piperazin-1-yl]-4-((S)-4-hydroxy-6-aza-spiro[2.5]oct-6-yl)-butyl ester], the concentration for half-maximal inhibition (IC50) was found to be 17 nM.
Take `C[C@H]1C(=O)N(C[C@@H](O)CN2CCC3(CC3)[C@H](O)C2)CCN1C(=O)Nc1ccc(Cl)c(Cl)c1` [Example 120, (S)-4-[(S)-2-Hydroxy-3-((S)-4-hydroxy-6-aza-spiro[2.5]oct-6-yl)-propyl]-2-methyl-3-oxo-piperazine-1-carboxylic acid (3,4-dichloro-phenyl)-amide]: the IC50 is 2 nM.
With `C[C@H]1C(=O)N(CCCN2CCC(O)CC2)CCN1C(=O)Nc1ccc(Cl)c(Cl)c1` [Example 49, (S)-4-[3-(4-Hydroxy-piperidin-1-yl)-propyl]-2-methyl-3-oxo-piperazine-1-carboxylic acid (3,4-dichloro-phenyl)-amide], the IC50 stood at 160 nM.
On to `C[C@H]1C(=O)N(CCCN2CCC3(CC3)[C@H](O)C2)CCN1C(=O)Nc1ccccc1` [Example 74, (S)-4-[3-((S)-4-Hydroxy-6-aza-spiro[2.5]oct-6-yl)-propyl]-2-methyl-3-oxo-piperazine-1-carboxylic acid phenylamide], for which the IC50 is 64 nM.
In the case of `C[C@H]1C(=O)N(CCCCN2CCC3(CC3)[C@H](O)C2)CCN1C(=O)Nc1cccc(C(F)(F)F)n1` [Example 101, (S)-4-[4-((S)-4-Hydroxy-6-aza-spiro[2.5]oct-6-yl)-butyl]-2-methyl-3-oxo-piperazine-1-carboxylic acid (6-trifluoromethyl-pyridin-2-yl)-amide] it was 316 nM; in that of `COc1ccc(C(=O)OC[C@H](CCN2CCC3(CC3)[C@H](O)C2)N2CCN(C(=O)Nc3ccc(Cl)c(Cl)c3)[C@@H](C)C2=O)cc1` [Example 119, 4-Methoxy-benzoic acid (S)-2-[(S)-4-(3,4-dichloro-phenylcarbamoyl)-3-methyl-2-oxo-piperazin-1-yl]-4-((S)-4-hydroxy-6-aza-spiro[2.5]oct-6-yl)-butyl ester], 4 nM; in that of `C[C@H]1C(=O)N(CCCN2CCC3(CC3)[C@H](O)C2)CCN1C(=O)Nc1cccc(-c2ccccc2)c1` [Example 78, (S)-4-[3-((S)-4-Hydroxy-6-aza-spiro[2.5]oct-6-yl)-propyl]-2-methyl-3-oxo-piperazine-1-carboxylic acid biphenyl-3-ylamide], 2 nM.
Then `C[C@H]1C(=O)N(CCCN2CCCCC2)CCN1C(=O)Nc1ccc(Cl)c(Cl)c1` [Example 37, (S)-2-Methyl-3-oxo-4-(3-piperidin-1-yl-propyl)-piperazine-1-carboxylic acid (3,4-dichloro-phenyl)-amide], with 50 nM; and `C[C@H]1C(=O)N(CCCCN2CCC3(CC3)[C@H](O)C2)CCN1C(=O)Nc1cccc(C(F)(F)F)c1` [Example 89, (S)-4-[4-((S)-4-Hydroxy-6-aza-spiro[2.5]oct-6-yl)-butyl]-2-methyl-3-oxo-piperazine-1-carboxylic acid (3-trifluoromethyl-phenyl)-amide], with 25 nM.

Values taken from patent US8071586B2, “Heterocyclyl compounds” (Hoffmann-La Roche Inc., priority 2008, dated 2011).
